Assay results: PubChem BioAssay (NCI)
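48-hour exposure; five concentrations; linearly interpolated endpoints. TGI: concentration producing complete growth inhibition.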 Where a SMILES comes first, the peptide text is derived from it. The star is where a group is joined. Cbz = O=C(OCc1ccccc1)*; Boc = CC(C)(C)OC(=O)*; OBn = c1ccc(CO*)cc1

How the values were obtained:
Experiment in all cases: DTP human tumour cell line panel, 48 h
[1] = system: MDA-N
[2] = system: DU-145 prostate
[3] = system: SN12C renal
[4] = system: RPMI-8226 leukemia
[5] = system: MALME-3M melanoma
[6] = system: HL-60(TB) leukemia
[7] = system: TK-10 renal
[8] = system: ACHN renal
[9] = system: IGROV1 ovarian
[10] = system: M14 melanoma
[11] = system: KM12 colon
[12] = system: HT29 colon
[13] = system: SF-268 CNS

Molecule COC(=O)C(CCCCNC(=O)OCc1ccccc1)NC(=O)C(CCC(=O)OCc1ccccc1)NC(=O)OC(C)(C)C (stereo not given) (Boc-Glu(OBn)-Lys(Cbz)-OMe; configuration not given here) has a TGI [1] greater than 100 µM, a TGI [2] greater than 100 µM and a TGI [3] greater than 100 µM. It also gave a TGI [4] greater than 100 µM, a TGI [5] greater than 100 µM and a TGI [6] greater than 100 µM. It also gave a TGI [7] greater than 100 µM, a TGI [8] greater than 100 µM and a TGI [9] greater than 100 µM. It also gave a TGI [10] greater than 100 µM, a TGI [11] greater than 100 µM and a TGI [12] greater than 100 µM. It also gave a TGI [13] greater than 100 µM.
Work on COC(=O)C1(Cc2ccccc2C)Cc2ccc(C)cc2C1=O (stereo not given) yielded a TGI [1] greater than 100 µM, a TGI [2] greater than 100 µM and a TGI [3] of 57.4 µM. It also gave a TGI [4] of 32.2 µM, a TGI [5] of 72.6 µM and a TGI [6] of 30.9 µM. For the same molecule, the TGI [7] was 85.9 µM, the TGI [8] was greater than 100 µM and the TGI [9] was greater than 100 µM. It also gave a TGI [10] greater than 100 µM, a TGI [11] greater than 100 µM and a TGI [12] of 57.5 µM. For the same molecule, the TGI [13] was greater than 100 µM.
COC(=O)/C=C(\S/C(=C(/c1ccccc1)n1cc(C(=O)OC)c(C(=O)OC)n1)c1ccccc1)C(=O)OC gave a TGI [1] of 37.9 µM, a TGI [2] of 29.1 µM and a TGI [3] of 40.9 µM. For the same molecule, the TGI [4] was 26.9 µM, the TGI [5] was 31.9 µM and the TGI [6] was 12.6 µM. It also gave a TGI [7] of 9.22 µM, a TGI [8] of 10.6 µM and a TGI [9] of 31.9 µM. It also gave a TGI [10] of 29.8 µM, a TGI [11] greater than 100 µM and a TGI [12] of 18.6 µM. It also gave a TGI [13] of 32.8 µM.
CCOP(=O)(OCC)OC1CC(n2cnc3c(N(CC)CC)ncnc32)OC1CO[Si](C)(C)C(C)(C)C (stereo not given) was tested, and the TGI [1] was 32 µM, the TGI [2] was 28.8 µM and the TGI [3] was 37.8 µM. The TGI [4] was greater than 100 µM, the TGI [5] was 41.4 µM and the TGI [6] was greater than 100 µM. For the same molecule, the TGI [7] was 33 µM, the TGI [8] was 28.8 µM and the TGI [9] was 32.3 µM. For the same molecule, the TGI [10] was 33.1 µM, the TGI [11] was 38.6 µM and the TGI [12] was 35 µM. For the same molecule, the TGI [13] was 31.5 µM.
Nc1nc(SCC(=O)c2ccccc2)nc2nc3c(c(-c4ccccc4)c12)CCCC3 showed a TGI [1] greater than 100 µM, a TGI [2] greater than 100 µM and a TGI [3] greater than 100 µM. For the same molecule, the TGI [4] was greater than 100 µM, the TGI [5] was greater than 100 µM and the TGI [6] was greater than 100 µM. The TGI [7] was greater than 100 µM, the TGI [8] was greater than 100 µM and the TGI [10] was greater than 100 µM. For the same molecule, the TGI [11] was greater than 100 µM, the TGI [12] was greater than 100 µM and the TGI [13] was 61.5 µM.
OCC1OC(NC(=S)NCSCCC(F)(F)C(F)(F)C(F)(F)C(F)(F)C(F)(F)C(F)(F)F)C(O)C(O)C1O (stereo not given) showed a TGI [1] greater than 100 µM, a TGI [2] greater than 100 µM and a TGI [3] greater than 100 µM. It also gave a TGI [4] greater than 100 µM, a TGI [5] greater than 100 µM and a TGI [6] greater than 100 µM. The TGI [7] was greater than 100 µM, the TGI [8] was greater than 100 µM and the TGI [9] was greater than 100 µM. The TGI [10] was 62.1 µM, the TGI [11] was greater than 100 µM and the TGI [12] was greater than 100 µM. For the same molecule, the TGI [13] was greater than 100 µM.
Cc1ccc(CCCC(=O)O)cc1C gave a TGI [1] greater than 100 µM, a TGI [2] greater than 100 µM and a TGI [3] greater than 100 µM. It also gave a TGI [4] greater than 100 µM, a TGI [5] greater than 100 µM and a TGI [6] greater than 100 µM. The TGI [7] was greater than 100 µM, the TGI [8] was greater than 100 µM and the TGI [9] was greater than 100 µM. The TGI [10] was greater than 100 µM, the TGI [11] was greater than 100 µM and the TGI [12] was greater than 100 µM. For the same molecule, the TGI [13] was greater than 100 µM.
